Data reported in patent US5985878A, “Angiogenesis inhibiting pyridazinamines” (Janssen Pharmaceuticals, N.V., priority 1996, dated 1999).
pIC50: −log10 of the molar value.

Experiments:
rat aortic ring = experiment: Angiogenesis inhibitory activity in vitro, rat aortic ring model (microvessel formation); type: cell-based; settings: 192 h, microvessel area following eight days in culture
Description: Angiogenosis inhibitory activity was measured in vitro using the rat aortic ring model of angiogenesis as described by Nicosia, R. F. and Ottinetti in "Laboratory Investigation", vol. 63, p. 115, 1990. The ability of compounds to inhibit microvessel formation was compared to velicle-treatedcontrol rings.

angiogenesis = experiment: In vivo angiogenesis inhibitory activity, Matrigel model; design: species or system warm-blooded animal; settings: po, administered orally
Description: The in vivo angiogenesis inhibitory activity was measured using the Matrigel model, as described in U.S. Pat. No. 5,382,514. Briefly, a liquid, containing extracts of murine basement membrane and an angiogenic growth factor (e.g. VEGF, bFGF, aFGF), was injected in a warm-blooded animal where it fonns a gel matrix. After a period of time, the gel is recovered from the anmimal and angiogenesis is quantitated. The test compounds were administered orally at a dose of 0.1 mg/kg.

Row | Compound | pIC50 (rat aortic ring) | inhibition in vivo at 0.1 mg/kg (angiogenesis) [%]
1 | Cc1nsc(-c2ccc(N3CCN(c4cccc(Cl)c4)CC3)nn2)n1 [Compound 2, 3-[4-(3-chlorophenyl)-1-piperazinyl]-6-(3-methyl-1,2,4-thiadiazol-5-yl)pyridazine] | 9.22 | > 70
2 | Cc1nsc(-c2ccc(N3CCN(c4cccc(Cl)c4)C(C)C3)nn2)n1 (stereo not shown) [Compound 13] | 9.10 | 
3 | Cc1nsc(-c2ccc(N3CCN(c4cccc(Cl)c4Cl)CC3)nn2)n1 [Compound 24] | 9.52 | 
4 | Cc1nsc(-c2ccc(N3CCC(c4cccc(C(F)(F)F)c4)C3)nn2)n1 (stereo not shown) [Compound 30] |  | > 70
5 | Cc1nsc(-c2ccc(N3CCCC(c4cccc(C(F)(F)F)c4)CC3)nn2)n1 (stereo not shown) [Compound 32] | 9.05 | 
6 | Cc1nsc(-c2ccc(N3CCN(C4CCN(c5cccc(C(F)(F)F)c5)CC4)CC3)nn2)n1 [Compound 44] | 9.15 | 
7 | Cc1nsc(-c2ccc(N3CCC(Nc4cccc(C(F)(F)F)c4)CC3)nn2)n1 [Compound 47] |  | > 70
8 | Cc1nsc(-c2ccc(N3CCC(OCc4cccc(C(F)(F)F)c4)CC3)nn2)n1 [Compound 48] | 9.30 | 
9 | Cc1nsc(-c2ccc(N3CCC(N4CCN(c5cccc(C(F)(F)F)c5)CC4)CC3)nn2)n1 [Compound 53, 3-(3-methyl-1,2,4-thiadiazol-5-yl)-6-[4-[4-[3-(trifluoromethyl)phenyl]-1-piperazinyl]-1-piperidinyl]pyridazine] | 9.52 | > 70
10 | Cc1nsc(-c2ccc(N3CCC(OC(c4ccccc4)c4ccccc4)CC3)nn2)n1 [Compound 54] |  | > 70
11 | Cc1nsc(-c2ccc(N3CCC(COc4cccc(Cl)c4)CC3)nn2)n1 [Compound 56] | 9.05 | 
12 | Cc1nsc(-c2ccc(N3CC=C(c4cccc(C(F)(F)F)c4)CC3)nn2)n1 [Compound 66] | 9.52 | 
13 | Cc1nsc(-c2ccc(N3CCN(c4cccc(Br)c4)CC3)nn2)n1 [Compound 72] | 9.30 | 
14 | COc1ccc(Cl)c(N2CCN(c3ccc(-c4nc(C)ns4)nn3)CC2)c1 [Compound 75] | 9.22 | > 70
15 | Cc1nsc(-c2ccc(N3CCN(c4cc(Cl)c(Cl)cc4Cl)CC3)nn2)n1 [Compound 82] | 9.10 | > 70
16 | Cc1nsc(-c2ccc(N3CCN(c4ccc(Br)c(C(F)(F)F)c4)CC3)nn2)n1 [Compound 88, 3-[4-[4-bromo-3-(trifluoromethyl)phenyl]-1-piperazinyl]-6-(3-methyl-1,2,4-thiadiazol-5-yl)pyridazine] |  | > 70
17 | Cc1nsc(-c2ccc(N3CCC(C(=O)c4cccc(C(F)(F)F)c4)CC3)nn2)n1 [Compound 130] | 9.52 | 
18 | Cc1nsc(-c2ccc(N3CCC(C(O)c4cccc(C(F)(F)F)c4)CC3)nn2)n1 (stereo not shown) [Compound 134] | 9.22 | > 70
19 | Cc1nsc(-c2ccc(N3CCC(C(=O)c4cccc(Cl)c4)CC3)nn2)n1 [Compound 135] | 9.30 | 
20 | Cc1nsc(-c2ccc(N3CCC(N(C)Cc4cccc(C(F)(F)F)c4)CC3)nn2)n1 [Compound 137] | 9.30 | 
21 | Cc1nsc(-c2ccc(N3CCC(Sc4cccc(Cl)c4)CC3)nn2)n1 [Compound 139] | 9.30 | 
22 | Cc1nsc(-c2ccc(N3CCC(N(C)c4cccc(C(F)(F)F)c4)CC3)nn2)n1 [Compound 142] | 9.52 | 
23 | Cc1nsc(-c2ccc(N3CCC(Nc4cccc(C(F)(F)F)c4)C3)nn2)n1 (stereo not shown) [Compound 169] | 9.10 | 
24 | Cc1nsc(-c2ccc(N3C4CCC3CC(c3cccc(C(F)(F)F)c3)C4)nn2)n1 (stereo not shown) [Compound 177] | 9.15 | > 70

More lines, main results first:

Row | pIC50 (rat aortic ring) | Compound | inhibition in vivo at 0.1 mg/kg (angiogenesis) [%]
25 | 9.70 | Cc1nsc(-c2ccc(N3CC[C@@H](c4cccc(C(F)(F)F)c4)[C@@H](C)C3)nn2)n1 (relative stereo) [Compound 108] | 
26 | 9.52 | Cc1nsc(-c2ccc(N3CCN(c4cccc(C(F)(F)F)c4)CC3)nn2)n1 [Compound 1, 3-(3-methyl-1,2,4-thiadiazol-5-yl)-6-[4-[3-(trifluoromethyl)phenyl]-1-piperazinyl]pyridazine] | 
27 | 10.30 | Cc1nsc(-c2ccc(N3CCN(c4cc(Cl)cc(Cl)c4)CC3)nn2)n1 [Compound 23] | 
28 | 9.70 | Cc1nsc(-c2ccc(N3CCN(c4cc(Cl)ccc4Cl)CC3)nn2)n1 [Compound 27] | 
29 | 10.28 | Cc1nsc(-c2ccc(N3CCC(c4cccc(C(F)(F)F)c4)CC3)nn2)n1 [Compound 31, 3-(3-methyl-1,2,4-thiadiazol-5-yl)-6-[4-[3-(trifluoromethyl)phenyl]-1-piperidinyl]pyridazine] | > 70
30 | 10.30 | Cc1nsc(-c2ccc(N3CCN(c4cc(C(F)(F)F)cc(C(F)(F)F)c4)CC3)nn2)n1 [Compound 74] | > 70
31 | 9.70 | Cc1nsc(-c2ccc(N3CCN(c4ccccc4C(F)(F)F)CC3)nn2)n1 [Compound 76] | 
32 | > 10.00 | Cc1nsc(-c2ccc(N3CCN(c4ccc(Br)cc4[N+](=O)[O-])CC3)nn2)n1 [Compound 85] | 
33 | 9.70 | Cc1nsc(-c2ccc(N3CCC(c4cc(C(F)(F)F)cc(C(F)(F)F)c4)CC3)nn2)n1 [Compound 111] | 
34 | 9.70 | Cc1nsc(-c2ccc(N3CCC(Cc4cccc(C(F)(F)F)c4)CC3)nn2)n1 [Compound 132] | 
35 | 9.70 | Cc1nsc(-c2ccc(N3CCC(C(C#N)c4cccc(Cl)c4)CC3)nn2)n1 (stereo not shown) [Compound 138] | > 70
36 | 9.70 | Cc1nsc(-c2ccc(N3CCC(N4CCN(c5cc(Cl)cc(Cl)c5)CC4)CC3)nn2)n1 [Compound 160] | 
37 | > 10.00 | Cc1nsc(-c2ccc(N3CCC(N4CCN(c5cc(C(F)(F)F)cc(C(F)(F)F)c5)CC4)CC3)nn2)n1 [Compound 161] | 
